From patent US8722713B2, “Synergistic antimicrobial composition of 1,2-benzisothiazolin-3-one and tris(hydroxymethyl)nitromethane” (Dow Global Technologies LLC, priority 2010, dated 2014) come the findings set out here.

The subject of assay [1] is Psedomonas aeruginosa ATCC 10145 and Staphylococcus aureus ATCC 6538. Description: Biocidal efficacy (MBC, complete kill) against aerobic bacteria in contaminated NaCl solution. The format is cell-based. Particulars: 37° C., 24 hour, ~10^6 CFU/ml. On the procedure:
A sterile NaCl solution (0.85%) was contaminated with Psedomonas aeruginosa ATCC 10145 and Staphylococcus aureus ATCC 6538 at final bacterial concentration of ˜10^6 CFU/ml. The aliquots of this contaminated water were then treated with BIT, Tris Nitro, or the BIT/Tris Nitro combination at different active concentration levels. […] Table 2 summarizes the efficacy of each biocide and their blends, and the Synergy Index of each combination.

For assay [2], the system named is oil field isolated anaerobic consortium, mainly SRB. Description: Biocidal efficacy (MBC) against anaerobic bacteria in contaminated salt solution. The format is cell-based. Particulars: 40° C., 24 hour, 10^6 to 10^7 CFU/mL. On the procedure: Inside an anaerobic chamber (Bactron anaerobic chamber), a deaerated sterile salt solution (3.1183 g of NaCl, 1.3082 mg of NaHCO3, 47.70 mg of KCl, 72.00 mg of CaCl2, 54.49 mg of MgSO4, 172.28 mg of Na2SO4, 43.92 mg of Na2CO3 in 1 L water) was contaminated with an oil field isolated anaerobic consortium, mainly SRB, at final bacterial concentrations of 10^6 to 10^7 CFU/mL. The aliquots of this contaminated water were then treated with BIT, Tris Nitro, or the BIT/Tris Nitro combinations at different active concentration levels. After the mixtures were incubated at 40° C. for 24 hour, the biocidal efficacy was determined by minimum tested biocide concentration for bacteria kill in the aliquots (MBC). Table 1 summarizes the efficacy of each biocide and their blends, and the Synergy Index* of each combination.

As to `O=[N+]([O-])C(CO)(CO)CO` [0:1, tris(hydroxymethyl)nitromethane], the “Dosage required for complete kill (active ppm) Tris Nitro” value in assay [1] (concentration of Tris Nitro at MBC) came to 25.7 active ppm. Moreover, the “MBC (active ppm) Tris Nitro” value in assay [2] (concentration of Tris Nitro at minimum tested biocide concentration for bacteria kill) is on record as over 100 active ppm.
As for `O=c1[nH]sc2ccccc12` [1:0, 1,2-benzisothiazolin-3-one], the “Dosage required for complete kill (active ppm) BIT” value in assay [1] (concentration of BIT at MBC) is over 25 active ppm. In assay [2] (concentration of BIT at minimum tested biocide concentration for bacteria kill), the “MBC (active ppm) BIT” value is reported as 17.3 active ppm.
